Ki data for 34 compounds are collected here from ChEMBL document CHEMBL1148465, “Carbonic anhydrase inhibitors: the first selective, membrane-impermeant inhibitors targeting the tumor-associated isozyme IX” (Bioorg Med Chem Lett, 2004).

Among the targets are Carbonic anhydrase 9 (Homo sapiens, UniProt Q16790); Carbonic anhydrase 1 (Homo sapiens, UniProt P00915); Carbonic anhydrase 2 (Homo sapiens, UniProt P00918).
A further assay addresses T1, Carbonic anhydrase 4 (Bos taurus, UniProt Q95323).
T1 sequence (Q95323 whole entry): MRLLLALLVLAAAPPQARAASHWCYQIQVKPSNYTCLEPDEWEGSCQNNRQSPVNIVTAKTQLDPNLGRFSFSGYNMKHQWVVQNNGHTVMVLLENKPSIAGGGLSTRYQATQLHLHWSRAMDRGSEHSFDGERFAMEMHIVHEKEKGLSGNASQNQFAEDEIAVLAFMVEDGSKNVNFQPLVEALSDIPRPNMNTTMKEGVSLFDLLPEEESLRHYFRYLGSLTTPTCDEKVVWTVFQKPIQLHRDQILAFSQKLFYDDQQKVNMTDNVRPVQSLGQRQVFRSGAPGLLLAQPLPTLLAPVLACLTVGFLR

A value given as a limit tells only on which side of the number the result lay.

Sequence of Carbonic anhydrase 1 (P00915 whole entry): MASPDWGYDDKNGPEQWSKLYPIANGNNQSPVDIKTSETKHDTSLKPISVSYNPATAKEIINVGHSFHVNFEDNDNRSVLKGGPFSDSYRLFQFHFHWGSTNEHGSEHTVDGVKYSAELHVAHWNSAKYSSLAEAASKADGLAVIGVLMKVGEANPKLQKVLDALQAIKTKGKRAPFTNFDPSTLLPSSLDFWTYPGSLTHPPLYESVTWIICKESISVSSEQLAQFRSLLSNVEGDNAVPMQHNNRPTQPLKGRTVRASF
Description for Carbonic anhydrase 1: Inhibitory activity against human carbonic anhydrase I
Description for Carbonic anhydrase 2: Inhibitory activity against human carbonic anhydrase II
Description for Carbonic anhydrase 4: Inhibitory activity against carbonic anhydrase IV from bovine lung microsomes
Description for Carbonic anhydrase 9: Inhibitory activity against human carbonic anhydrase IX

As a reminder, the Ki is the equilibrium dissociation constant of an inhibitor or competing ligand from its target. Read a low Ki as tighter binding. `CC(C)(C)c1cc(-c2ccccc2)cc(-c2ccccc2)[n+]1Cc1ccc(S(N)(=O)=O)cc1` gave a Ki on Carbonic anhydrase 9 greater than 500 nM.
As for `NS(=O)(=O)c1ccc(C[n+]2c(-c3ccccc3)cccc2-c2ccccc2)cc1`, the figures for the Ki at Carbonic anhydrase 1 and at Carbonic anhydrase 4 were 280000 nM and 1950 nM, respectively.
`CCCc1cc(-c2ccccc2)cc(CCC)[n+]1CCc1ccc(S(N)(=O)=O)cc1`: on Carbonic anhydrase 1, the Ki came out at 7000 nM. That is a single-digit micromolar value.
For `Cc1cc(-c2ccccc2)cc(C)[n+]1Cc1ccc(S(N)(=O)=O)cc1`, the Ki worked out at 4000 nM on Carbonic anhydrase 1 and 70 nM on Carbonic anhydrase 4.
In the case of `CC(C)c1cc(-c2ccccc2)cc(-c2ccccc2)[n+]1Cc1ccc(S(N)(=O)=O)cc1`, the Ki on Carbonic anhydrase 1 amounted to 112000 nM.
Regarding `CCc1cc(-c2ccccc2)cc(CC)[n+]1Cc1ccc(S(N)(=O)=O)cc1`, the Ki at Carbonic anhydrase 2 came out at 21 nM; at Carbonic anhydrase 1 it was 2000 nM.
As to `Cc1cc(C(C)C)[n+](CCc2ccc(S(N)(=O)=O)cc2)c(C(C)C)c1`, the Ki stood at 20 nM at Carbonic anhydrase 2, 3000 nM on Carbonic anhydrase 1 and 70 nM on Carbonic anhydrase 4.
Compound `CCc1cc(-c2ccccc2)cc(-c2ccccc2)[n+]1CCc1ccc(S(N)(=O)=O)cc1` had a Ki at Carbonic anhydrase 1 of 40000 nM. This lies in the double-digit micromolar range.
The same measure, in the same setting: in the case of `Cc1cc(C)[n+](CCc2ccc(S(N)(=O)=O)cc2)c(C(C)C)c1` it was 2000 nM; in that of `CCCc1cc(-c2ccccc2)cc(-c2ccccc2)[n+]1CCc1ccc(S(N)(=O)=O)cc1`, 112000 nM.
For the compound `CCCCc1cc(-c2ccccc2)cc(-c2ccccc2)[n+]1Cc1ccc(S(N)(=O)=O)cc1`, the Ki on Carbonic anhydrase 2 was 595 nM; on Carbonic anhydrase 1, 300000 nM; at Carbonic anhydrase 9 it was 135 nM; at Carbonic anhydrase 4, 2100 nM.
Regarding `Cc1cc(C)[n+](-c2ccc(S(N)(=O)=O)cc2)c(C)c1`, affinity at Carbonic anhydrase 1 was put at a Ki of 10000 nM.
For `CC(C)c1cc(-c2ccccc2)cc(-c2ccccc2)[n+]1-c1ccc(S(N)(=O)=O)cc1`, the Ki on Carbonic anhydrase 9 is greater than 500 nM; at Carbonic anhydrase 4 it was 2100 nM.
`Cc1cc(-c2ccccc2)cc(-c2ccccc2)[n+]1-c1ccc(S(N)(=O)=O)cc1`: the Ki at Carbonic anhydrase 1 is 40000 nM.
On to `Cc1cc(C)[n+](CCc2ccc(S(N)(=O)=O)cc2)c(C)c1C`, for which the Ki on Carbonic anhydrase 1 amounted to 2000 nM; at Carbonic anhydrase 9 it was 8 nM; at Carbonic anhydrase 4, 21 nM.
On Carbonic anhydrase 1, `Cc1cc(C)[n+](-c2ccc(S(N)(=O)=O)cc2)c(C)c1C` gave a Ki of 5000 nM.
`Cc1cc(C)[n+](Cc2ccc(S(N)(=O)=O)cc2)c(C)c1`: the figures for the Ki on Carbonic anhydrase 2 and at Carbonic anhydrase 1 were 50 nM and 7000 nM, respectively.
The compound `Cc1cc(C)[n+](Cc2ccc(S(N)(=O)=O)cc2)c(C)c1C` gave a Ki on Carbonic anhydrase 1 of 3000 nM. In other words, the single-digit micromolar range.
`CC(C)(C)c1cc(-c2ccccc2)cc(-c2ccccc2)[n+]1CCc1ccc(S(N)(=O)=O)cc1`: at Carbonic anhydrase 9, the Ki is greater than 500 nM.
With `NS(=O)(=O)c1ccc(-[n+]2c(-c3ccccc3)cc(-c3ccccc3)cc2-c2ccccc2)cc1`, the figures for the Ki on Carbonic anhydrase 1 and at Carbonic anhydrase 9 were 290000 nM and greater than 500 nM, respectively.
Turning to `Cc1cc(-c2ccccc2)cc(C)[n+]1-c1ccc(S(N)(=O)=O)cc1`, the inhibitory constant (Ki) on Carbonic anhydrase 2 is 60 nM; at Carbonic anhydrase 1, 7000 nM.
As to `CCc1cc(-c2ccccc2)cc(CC)[n+]1CCc1ccc(S(N)(=O)=O)cc1`, the Ki turned out to be 1000 nM on Carbonic anhydrase 1, 8 nM at Carbonic anhydrase 9 and 21 nM on Carbonic anhydrase 4.
`CCCc1cc(-c2ccccc2)cc(-c2ccccc2)[n+]1-c1ccc(S(N)(=O)=O)cc1` returned a Ki at Carbonic anhydrase 9 greater than 500 nM.
At Carbonic anhydrase 1, `CCCc1cc(-c2ccccc2)cc(CCC)[n+]1-c1ccc(S(N)(=O)=O)cc1` had a Ki of 10000 nM. This lies in the double-digit micromolar range.
With `CCc1cc(-c2ccccc2)cc(-c2ccccc2)[n+]1Cc1ccc(S(N)(=O)=O)cc1`, the Ki worked out at 314 nM on Carbonic anhydrase 2, 42000 nM at Carbonic anhydrase 1, 79 nM on Carbonic anhydrase 9 and 983 nM at Carbonic anhydrase 4.
The compound `Cc1cc(-c2ccccc2)cc(C)[n+]1CCc1ccc(S(N)(=O)=O)cc1` had a Ki on Carbonic anhydrase 1 of 1000 nM. In other words, the single-digit micromolar range.
With `Cc1cc(C)[n+](Cc2ccc(S(N)(=O)=O)cc2)c(C(C)C)c1`, the results for the Ki at Carbonic anhydrase 2 and at Carbonic anhydrase 1 were 50 nM and 6000 nM, respectively.
`Cc1cc(C(C)C)[n+](Cc2ccc(S(N)(=O)=O)cc2)c(C(C)C)c1` had a Ki on Carbonic anhydrase 4 of 144 nM. In other words, the sub-micromolar range.
As for `NS(=O)(=O)c1ccc(C[n+]2c(-c3ccccc3)cc(-c3ccccc3)cc2-c2ccccc2)cc1`, the Ki on Carbonic anhydrase 1 is 280000 nM; on Carbonic anhydrase 9, 120 nM; on Carbonic anhydrase 4, 1960 nM.
In the case of `CC(C)c1cc(-c2ccccc2)cc(C(C)C)[n+]1CCc1ccc(S(N)(=O)=O)cc1`, the Ki on Carbonic anhydrase 2 is 21 nM; on Carbonic anhydrase 1 it was 6000 nM.
Consider `CCCCc1cc(-c2ccccc2)cc(-c2ccccc2)[n+]1CCc1ccc(S(N)(=O)=O)cc1`, for which the Ki at Carbonic anhydrase 1 amounted to 290000 nM; at Carbonic anhydrase 9, 120 nM.
Regarding `CC(C)c1cc(-c2ccccc2)cc(C(C)C)[n+]1-c1ccc(S(N)(=O)=O)cc1`, affinity on Carbonic anhydrase 1 was put at a Ki of 5000 nM.
Regarding `CCc1cc(-c2ccccc2)cc(CC)[n+]1-c1ccc(S(N)(=O)=O)cc1`, the Ki at Carbonic anhydrase 2 worked out at 60 nM; at Carbonic anhydrase 1, 6000 nM.
Regarding `CCCCc1cc(-c2ccccc2)cc(-c2ccccc2)[n+]1-c1ccc(S(N)(=O)=O)cc1`, the Ki on Carbonic anhydrase 9 is greater than 500 nM.
